According to US8568968B2, “EGFR polymorphisms predict gender-related treatment” (University of Southern California, priority 2009, dated 2013):
“And” between values parts separate entries of the source, which are not always exact repeats. Identical values can stand only once.

Tested on: metastatic colon cancer patients
Test: Overall survival of metastatic colon cancer patients treated with 5-FU-based chemotherapy, by gender and EGFR genotype
Type: in vivo, human
Details: for RR (95% CI): relative risk
Text: A total of 318 patients with metastatic colon cancer treated at the University of Southern California/Norris Comprehensive Cancer Center (USC/NCCC) or the Los Angeles County/University of Southern California Medical Center (LAC/USCMC), between 1992 and 2003, were eligible for the present study. This population included only metastatic or recurrent colon cancer patients. All patients in this study signed informed consents and enrolled in protocols designed to study the molecular determinants of colon cancer. These protocols permitted blood collection (USC protocol OS-99-10) and/or tissue collection (USC protocol 0S-00-15).
All patients were entered and followed in an institutional database. Patient information was collected through database review and retrospective chart review when additional patient information was necessary. A large number of the patients (69%) were initially treated at an outside institution until, because of failure to respond to prior treatment, they were referred to USC/NCCC or LAC/USCMC for subsequent treatments. The end point of this study, OS, was determined by calculating the difference between the date of first treatment at USC/NCCC or LAC/USC and the date of last follow-up appointment or date of death from disease.
All 318 patients were enrolled in at least one chemotherapy clinical trial while being treated at this institution (USC/NCCC or LAC/USCMC). All patients were treated with 5-fluorouracil (5-FU)-based chemotherapy regimens, and response to chemotherapy was not investigated as an end point for this study. This is a heavily pretreated cohort with 20 (6%) patients treated with one line of chemotherapy, 19 (6%) patients treated with two different chemotherapy regimens, 183 (58%) patients treated with three chemotherapy regimens, and 96 (30%) patients treated with four or more chemotherapy regimens. […] All 318 patients received treatment with 5-FU, 298 (94%) patients received treatment with 5-FU/irinotecan (CPT-11), and 279 (88%) patients received treatment with 5-FU/oxaliplatin.
The primary end point of this study is OS. The OS was determined by calculating the difference between the date of first treatment at USC/NCCC or LAC/USC and the date of last follow-up appointment or date of death. Patients who were alive at the last follow-up were censored at that time.
The associations between sex and other demographic and clinical characteristics were examined using contingency tables and the Fisher exact test. The dominant code for HER-1 R497K was used for the association with OS, and patients who carried heterozygous (Arg/Lys) and homozygous mutant genotypes (Lys/Lys) were grouped together. EGFR intron 1 (CA)n repeat polymorphism was categorized into two groups: both alleles with <20 (CA)n (SEQ ID NO: 3) and any alleles with ≧20 (CA)n (SEQ ID NO: 4) as described previously (19). The associations of HER-1 R497K and EGFR intron 1 (CA)n repeat polymorphisms with OS were analyzed individually using Kaplan-Meier plots and the log-rank test. The independent effects of two EGFR polymorphisms on OS were examined in multivariable analysis using Cox proportional hazards model. Interactions between sex and EGFR polymorphisms were examined using stratified models and were tested by comparing corresponding likelihood ratio statistics between the baseline and nested Cox proportional hazards models that included the multiplicative product terms (20).

Compound: O=c1[nH]cc(F)c(=O)[nH]1 [5-FU, 5-fluorouracil]
- Median survival (95% CI) (female, EGFR intron 1 any (CA)n repeats ≧20): 14.1 mo and 14.1 (12.1-18.3) mo
- Median survival (95% CI) (female, EGFR intron 1 both (CA)n repeats <20): 17.6 mo and 17.9 mo and 17.6 (13.7-22.7) mo
- Median survival (95% CI) (female, HER-1 R497K Arg/Arg, 5-FU-based chemotherapy regimens): 16.0 (13.5-19.2) mo
- Median survival (95% CI) (female, HER-1 R497K Lys allele (Arg/Lys or Lys/Lys)): 14.0 (11.2-17.9) mo
- Median survival (95% CI) (female, combined: Arg/Arg and (CA)n <20): 15.7 (11.5-41.4) mo
- Median survival (95% CI) (female, combined: Arg/Arg and (CA)n ≧20 or Lys and (CA)n <20): 17.3 (14.0-19.2) mo
- Median survival (95% CI) (female, combined: Lys and (CA)n ≧20): 12.2 (7.7-16.7) mo
- RR (95% CI) (female, Arg/Arg and (CA)n ≧20 or Lys and (CA)n <20 vs Arg/Arg and (CA)n <20 (reference)): 0.93 (0.56-1.54)
- RR (95% CI) (female, Lys allele vs Arg/Arg (reference), Cox model): 1.41 (0.94-2.10)
- RR (95% CI) (female, Lys and (CA)n ≧20 vs Arg/Arg and (CA)n <20 (reference)): 1.90 (1.10-3.29)
- RR (95% CI) (female, any (CA)n ≧20 vs both <20 (reference)): 1.37 (0.93-2.01)
- Median survival (95% CI) (male, EGFR intron 1 any (CA)n repeats ≧20): 13.1 mo and 13.1 (10.7-16.0) mo
- Median survival (95% CI) (male, EGFR intron 1 both (CA)n repeats <20): 10.3 mo and 10.4 mo and 10.3 (8.3-15.5) mo
- Median survival (95% CI) (male, HER-1 R497K Arg/Arg, 5-FU-based chemotherapy regimens): 10.3 (9.0-13.5) mo
- Median survival (95% CI) (male, HER-1 R497K Lys allele (Arg/Lys or Lys/Lys)): 13.7 (10.8-19.1) mo
- Median survival (95% CI) (male, combined: Arg/Arg and (CA)n <20): 8.9 (7.3-11.4) mo
- Median survival (95% CI) (male, combined: Arg/Arg and (CA)n ≧20 or Lys and (CA)n <20): 13.1 (10.3-17.5) mo
- Median survival (95% CI) (male, combined: Lys and (CA)n ≧20): 13.6 (10.7-19.5) mo
- RR (95% CI) (male, Arg/Arg and (CA)n ≧20 or Lys and (CA)n <20 vs Arg/Arg and (CA)n <20 (reference)): 0.84 (0.57-1.25)
- RR (95% CI) (male, Lys allele vs Arg/Arg (reference), Cox model): 0.64 (0.46-0.89)
- RR (95% CI) (male, Lys and (CA)n ≧20 vs Arg/Arg and (CA)n <20 (reference)): 0.62 (0.39-0.97)
- RR (95% CI) (male, any (CA)n ≧20 vs both <20 (reference)): 0.92 (0.67-1.28)
